The nature of assay [1]: Binding of bisphosphonate conjugates on hydroxyapatite powder (UV absorbency of supernatant). The settings on record: pH 7.0. How it is done:
A. To estimate the binding of BC on hydroxyapatite (mineral component of a bone) UV spectra of BC in buffer pH 7 were recorded before and after treatment with hydroxyapatite. To this end 10 μl of hydroxyapatite suspension in water was added to 1 ml of ˜10^−4 M solution of a BC in 0.1M Tris-HCl buffer, pH 7.0, 0.15 M NaCl and the mixture was intensively shaken for 10 minutes, and centrifuged for 5 minutes at 10,000 rpm in a microcentrifuge. The supernatant was separated and an absorbency spectrum of the supernatant was recorded.

A short description of assay [2]: Mineral-binding ability by retention time on hydroxyapatite HPLC column. The settings on record: pH = 6.8, 2 mL/min. The method, then:
B. […] The flow rate was 2 mL min^−1. […] Nucleoside mono-, di-, and triphosphates were recorded at a wavelength of 260 nm and zoledronate at a wavelength of 218 nm. The concentration of the eluted compounds was 0.3 mmol L^−1.

Setting [3] is: 1500 mM sodium phosphate buffer.

In the case of `O=c1[nH]c(=O)n(COCCOP(=O)(O)OP(=O)(O)CP(=O)(O)O)cc1F` [II, Anhydride of 1-(2′-hydroxyethoxymethyl)-5-fluorouracil-2′-phosphate and methylenediphosphonic acid], in assay [1], the “% of bound compound” value turned out to be 87.26% and the “% of nonbound compound” value came out at 12.74%.

`O=c1ccn([C@@H]2O[C@H](COP(=O)(O)OP(=O)(O)O)[C@@H](O)[C@H]2O)c(=O)[nH]1` [UDP]: the “Retention time on hydroxyapatite column” value in assay [2] (500 mM sodium phosphate buffer) turned out to be 5.75 min; in assay [2] (setting [3]), 3.47 min.

As to `O=c1ccn([C@@H]2O[C@H](COP(=O)(O)O)[C@@H](O)[C@H]2O)c(=O)[nH]1` [UMP], the “Retention time on hydroxyapatite column” value in assay [2] (500 mM sodium phosphate buffer) was 4.25 min; in assay [2] (setting [3]) it was 3.42 min.

On to `O=c1ccn([C@@H]2O[C@H](COP(=O)(O)OP(=O)(O)OP(=O)(O)O)[C@@H](O)[C@H]2O)c(=O)[nH]1` [UTP], for which, in assay [2] (setting [3]), the “Retention time on hydroxyapatite column” value worked out at 3.5 min.

As to `CC(O)(P(=O)(O)O)P(=O)(O)OP(=O)(O)OCC1OC(n2cc(F)c(=O)[nH]c2=O)C(O)C1O` (stereo not drawn) [VI, anhydride of 5-Fluoro-uridine-5′-monophosphoric acid and 1-Hydroxyethylidene-1,1-diphosphonic acid], in assay [2] (500 mM sodium phosphate buffer), the “Retention time on hydroxyapatite column” value came out at 17.72 min. In addition, the “Retention time on hydroxyapatite column” value in assay [2] (setting [3]) is 6.00 min. In addition, in assay [1], the “% of bound compound” value was 69.66% and the “% of nonbound compound” value is given as 30.34%.

Regarding `O=P(O)(O)C(O)(Cn1ccnc1)P(=O)(O)O` [Zoledronate, zoledronate], in assay [2] (setting [3]), the “Retention time on hydroxyapatite column” value is reported as 17.35 min.
